Experiments:
[1] = Antiproliferative activity against human KATO III cells incubated for 72 hrs by MTT assay
[2] = system: SNU-16; assay: Antiproliferative activity against human SNU-16 cells incubated for 72 hrs by MTT assay; conditions: SNU-16, 72 h

| SMILES | IC50 [1] [µM] | IC50 [2] [µM] |
| --- | --- | --- |
| COc1cc(OC)cc(N(CCNC(C)C)c2ccc3ncc(-c4cnn(CCC(=O)NCC(=O)NCCNc5cccc6c5C(=O)N(C5CCC(=O)NC5=O)C6=O)c4)nc3c2)c1 (stereo not drawn) | 0.457 | 0.15 |
| COc1cc(OC)cc(N(CCNC(C)C)c2ccc3ncc(-c4cnn(CCCCCCCC(=O)NCCNc5cccc6c5C(=O)N(C5CCC(=O)NC5=O)C6=O)c4)nc3c2)c1 (stereo not drawn) | < 0.00017 | < 0.00017 |
| COc1cc(OC)cc(N(CCNC(C)C)c2ccc3ncc(-c4cnn(CCCC(=O)NCC(=O)NCCNc5cccc6c5C(=O)N(C5CCC(=O)NC5=O)C6=O)c4)nc3c2)c1 (stereo not drawn) | 0.002 | 0.022 |
| COc1cc(OC)cc(N(CCNC(C)C)c2ccc3ncc(-c4cnn(CCC(=O)NCCNc5cccc6c5C(=O)N(C5CCC(=O)NC5=O)C6=O)c4)nc3c2)c1 (stereo not drawn) | 0.701 | 0.153 |
| COc1cc(OC)cc(N(CCNC(C)C)c2ccc3ncc(-c4cnn(CCCCCCC(=O)NCC(=O)NCCNc5cccc6c5C(=O)N(C5CCC(=O)NC5=O)C6=O)c4)nc3c2)c1 (stereo not drawn) | 0.001 | 0.001 |
| COc1cc(OC)cc(N(CCNC(C)C)c2ccc3ncc(-c4cnn(CCOCC(=O)NCCNc5cccc6c5C(=O)N(C5CCC(=O)NC5=O)C6=O)c4)nc3c2)c1 (stereo not drawn) | 0.388 | 0.023 |
| COc1cc(OC)cc(N(CCNC(C)C)c2ccc3ncc(-c4cnn(CCCCCCCCCC(=O)NCCNc5cccc6c5C(=O)N(C5CCC(=O)NC5=O)C6=O)c4)nc3c2)c1 (stereo not drawn) | 0.002 | < 0.00017 |
| COc1cc(OC)cc(N(CCNC(C)C)c2ccc3ncc(-c4cnn(CCCCCC(=O)NCCNc5cccc6c5C(=O)N(C5CCC(=O)NC5=O)C6=O)c4)nc3c2)c1 (stereo not drawn) | 0.051 | 0.001 |
| COc1cc(OC)cc(N(CCNC(C)C)c2ccc3ncc(-c4cnn(CCCCCCCCC(=O)NCCNc5cccc6c5C(=O)N(C5CCC(=O)NC5=O)C6=O)c4)nc3c2)c1 (stereo not drawn) | < 0.00017 | < 0.00017 |
